This note sets out measurements from patent US20230109833A1, “METABOLICALLY STABLE N-ACYLAMINOOXADIAZOLES USEFUL AS ANTIBACTERIAL AGENTS” (MICROBIOTIX, INC., priority 2017, published 2023).

Holding throughout (type): binding
One test concerns the target Adenosine A2A (Homo sapiens, UniProt P29274). As to conditions: 10 μM compound, Hit Profile Panel.
Test [1] concerns the target Transporter, Norepinephrine (NET) (Homo sapiens, UniProt P23975). As to conditions: 10 μM compound, Hit Profile Panel.
For another test, the target named is Adrenergic β1 (Homo sapiens, UniProt P08588). The settings on record: 10 μM compound, Hit Profile Panel.
The next test has as its target Cannabinoid CB1 (Homo sapiens, UniProt P21554). As to conditions: 10 μM compound, Hit Profile Panel.
The target of a further test is T1, Adrenergic α2A (Homo sapiens, UniProt P08913).
T1 sequence (P08913 1-465): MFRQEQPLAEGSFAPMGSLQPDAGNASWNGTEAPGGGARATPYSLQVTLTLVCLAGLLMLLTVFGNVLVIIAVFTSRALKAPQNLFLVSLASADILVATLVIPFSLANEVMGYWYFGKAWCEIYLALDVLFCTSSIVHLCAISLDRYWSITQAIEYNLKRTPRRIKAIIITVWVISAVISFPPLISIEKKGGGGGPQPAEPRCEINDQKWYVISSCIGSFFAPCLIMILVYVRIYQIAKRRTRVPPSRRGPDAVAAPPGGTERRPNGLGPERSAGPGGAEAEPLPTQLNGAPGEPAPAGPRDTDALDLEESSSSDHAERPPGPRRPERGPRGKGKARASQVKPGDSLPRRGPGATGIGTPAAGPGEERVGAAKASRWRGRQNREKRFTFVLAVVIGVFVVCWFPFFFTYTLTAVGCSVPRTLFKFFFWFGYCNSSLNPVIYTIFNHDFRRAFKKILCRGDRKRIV
The settings on record: 10 μM compound, Hit Profile Panel.

A further test deals with Phorbol Ester. As to conditions: mouse; 10 μM compound; Hit Profile Panel.
The next test addresses Potassium Channel (KATP) (Cricetus cricetus, UniProt Q09427). The settings on record: hamster; 10 μM compound; Hit Profile Panel.
A further test deals with Nicotinic Acetylcholine. The settings on record: human; 10 μM compound; Hit Profile Panel.
The target of the next test is Histamine, H1 (Homo sapiens, UniProt P35367). The settings on record: 10 μM compound, Hit Profile Panel.
The target in the next test is T2, Adenosine A1 (Homo sapiens, UniProt P30542).
T2 sequence (P30542 1-326): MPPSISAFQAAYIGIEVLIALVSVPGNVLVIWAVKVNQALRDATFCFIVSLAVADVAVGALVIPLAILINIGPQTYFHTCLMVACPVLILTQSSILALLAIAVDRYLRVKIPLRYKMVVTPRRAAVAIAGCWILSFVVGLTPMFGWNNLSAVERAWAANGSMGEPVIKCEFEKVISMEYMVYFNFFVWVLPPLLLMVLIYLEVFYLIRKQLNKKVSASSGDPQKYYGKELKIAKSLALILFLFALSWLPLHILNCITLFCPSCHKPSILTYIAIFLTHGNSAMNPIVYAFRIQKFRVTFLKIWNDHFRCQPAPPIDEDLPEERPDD
As to conditions: 10 μM compound, Hit Profile Panel.

Test [2] deals with GABAA, Flunitrazepam, Central. The settings on record: rat; 10 μM compound; Hit Profile Panel.
Test [3] addresses Seritonin (5-Hydroxytryptamine) 5-HT2B (Homo sapiens, UniProt P41595). The settings on record: 10 μM compound, Hit Profile Panel.
For the next test, the target named is T3, Muscarinic M2 (Homo sapiens, UniProt P08172).
T3 sequence (P08172 1-466): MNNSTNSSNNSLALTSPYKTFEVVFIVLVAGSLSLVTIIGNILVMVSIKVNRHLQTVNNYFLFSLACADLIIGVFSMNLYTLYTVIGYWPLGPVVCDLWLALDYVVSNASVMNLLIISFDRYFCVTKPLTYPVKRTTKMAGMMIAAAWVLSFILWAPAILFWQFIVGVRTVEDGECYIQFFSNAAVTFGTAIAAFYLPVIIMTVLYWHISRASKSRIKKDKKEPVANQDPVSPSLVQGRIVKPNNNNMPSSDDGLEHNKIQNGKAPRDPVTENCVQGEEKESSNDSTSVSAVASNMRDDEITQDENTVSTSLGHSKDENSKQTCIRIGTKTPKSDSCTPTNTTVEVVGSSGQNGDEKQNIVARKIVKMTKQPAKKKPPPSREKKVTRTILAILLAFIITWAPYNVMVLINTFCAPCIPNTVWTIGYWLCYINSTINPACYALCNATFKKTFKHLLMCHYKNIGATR
As to conditions: 10 μM compound, Hit Profile Panel.

The target of another test is Prostanoid EP4 (Homo sapiens, UniProt P35408). The settings on record: 10 μM compound, Hit Profile Panel.
Another test addresses T4, Adrenergic α1A (Rattus norvegicus, UniProt P43140).
T4 sequence (P43140 1-466): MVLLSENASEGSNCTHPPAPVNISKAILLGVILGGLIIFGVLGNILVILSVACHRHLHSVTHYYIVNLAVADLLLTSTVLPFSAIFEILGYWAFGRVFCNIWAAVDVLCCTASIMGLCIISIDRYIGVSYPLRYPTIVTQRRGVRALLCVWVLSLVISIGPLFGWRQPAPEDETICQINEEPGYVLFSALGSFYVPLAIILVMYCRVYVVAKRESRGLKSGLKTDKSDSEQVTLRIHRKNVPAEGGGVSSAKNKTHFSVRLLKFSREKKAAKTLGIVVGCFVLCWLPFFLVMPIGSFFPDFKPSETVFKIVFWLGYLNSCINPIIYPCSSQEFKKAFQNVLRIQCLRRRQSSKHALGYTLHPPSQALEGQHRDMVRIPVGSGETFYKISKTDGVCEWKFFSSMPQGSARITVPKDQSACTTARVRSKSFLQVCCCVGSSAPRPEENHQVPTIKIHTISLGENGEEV
As to conditions: 10 μM compound, Hit Profile Panel.

Test [4] concerns Calcium Channel L-type, Dihydropyridine. The settings on record: rat; 10 μM compound; Hit Profile Panel.
In the next test the target is Dopamine D1 (Homo sapiens, UniProt P21728). The settings on record: 10 μM compound, Hit Profile Panel.

Each structure is given as a SMILES string.

Sequence of Potassium Channel (KATP) (Q09427 whole entry): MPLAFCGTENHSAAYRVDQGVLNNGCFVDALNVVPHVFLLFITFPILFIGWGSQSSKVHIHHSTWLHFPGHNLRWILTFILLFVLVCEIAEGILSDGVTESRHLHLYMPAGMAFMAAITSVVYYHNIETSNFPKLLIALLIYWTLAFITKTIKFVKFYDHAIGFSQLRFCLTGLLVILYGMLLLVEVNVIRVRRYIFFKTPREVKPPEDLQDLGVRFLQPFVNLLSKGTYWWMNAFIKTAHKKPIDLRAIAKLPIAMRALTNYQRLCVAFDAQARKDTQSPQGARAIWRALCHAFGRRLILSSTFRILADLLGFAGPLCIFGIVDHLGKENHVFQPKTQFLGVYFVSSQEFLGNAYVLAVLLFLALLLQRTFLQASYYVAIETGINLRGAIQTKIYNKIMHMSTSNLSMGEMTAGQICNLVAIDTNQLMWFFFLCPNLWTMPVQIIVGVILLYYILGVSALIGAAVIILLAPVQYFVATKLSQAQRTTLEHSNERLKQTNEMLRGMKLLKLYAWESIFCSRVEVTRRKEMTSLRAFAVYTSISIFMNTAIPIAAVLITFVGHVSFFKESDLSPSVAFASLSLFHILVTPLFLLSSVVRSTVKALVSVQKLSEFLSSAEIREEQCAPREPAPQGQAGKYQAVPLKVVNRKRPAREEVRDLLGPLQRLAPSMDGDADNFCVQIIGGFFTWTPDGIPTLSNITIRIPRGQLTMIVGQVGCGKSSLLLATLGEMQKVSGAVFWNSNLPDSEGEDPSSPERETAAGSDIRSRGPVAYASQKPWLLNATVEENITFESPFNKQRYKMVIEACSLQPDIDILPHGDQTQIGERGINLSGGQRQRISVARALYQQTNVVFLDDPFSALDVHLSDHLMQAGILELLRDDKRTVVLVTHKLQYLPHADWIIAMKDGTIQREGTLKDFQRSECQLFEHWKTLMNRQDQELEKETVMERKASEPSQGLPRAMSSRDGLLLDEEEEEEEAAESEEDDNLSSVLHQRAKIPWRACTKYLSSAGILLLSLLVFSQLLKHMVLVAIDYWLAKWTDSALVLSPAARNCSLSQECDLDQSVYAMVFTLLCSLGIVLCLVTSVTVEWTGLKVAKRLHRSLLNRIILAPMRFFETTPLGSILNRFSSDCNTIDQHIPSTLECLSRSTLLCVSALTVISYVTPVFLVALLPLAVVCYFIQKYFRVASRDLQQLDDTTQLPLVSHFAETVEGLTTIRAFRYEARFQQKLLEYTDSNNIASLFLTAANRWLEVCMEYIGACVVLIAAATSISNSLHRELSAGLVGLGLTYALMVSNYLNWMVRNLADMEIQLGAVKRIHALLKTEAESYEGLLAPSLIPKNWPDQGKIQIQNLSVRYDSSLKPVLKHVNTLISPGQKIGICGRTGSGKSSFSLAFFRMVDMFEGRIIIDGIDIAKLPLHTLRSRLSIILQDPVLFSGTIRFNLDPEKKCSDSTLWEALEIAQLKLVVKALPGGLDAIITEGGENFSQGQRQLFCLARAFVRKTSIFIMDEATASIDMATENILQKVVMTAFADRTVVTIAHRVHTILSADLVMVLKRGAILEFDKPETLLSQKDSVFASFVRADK
Sequence of Histamine, H1 (P35367 whole entry): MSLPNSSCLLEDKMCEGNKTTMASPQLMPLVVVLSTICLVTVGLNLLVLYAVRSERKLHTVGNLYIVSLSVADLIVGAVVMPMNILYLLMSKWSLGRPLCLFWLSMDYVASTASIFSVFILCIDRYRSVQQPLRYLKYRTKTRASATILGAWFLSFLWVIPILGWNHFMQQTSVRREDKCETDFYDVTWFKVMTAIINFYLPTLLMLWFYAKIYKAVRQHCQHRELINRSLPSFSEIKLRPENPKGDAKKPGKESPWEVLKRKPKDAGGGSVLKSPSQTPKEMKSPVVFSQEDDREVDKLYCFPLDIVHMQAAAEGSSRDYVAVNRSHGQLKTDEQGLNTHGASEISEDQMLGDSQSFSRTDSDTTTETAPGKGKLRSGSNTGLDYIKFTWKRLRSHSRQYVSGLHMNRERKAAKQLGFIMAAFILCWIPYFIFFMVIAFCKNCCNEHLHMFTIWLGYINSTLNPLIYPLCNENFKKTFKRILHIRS
Sequence of Prostanoid EP4 (P35408 whole entry): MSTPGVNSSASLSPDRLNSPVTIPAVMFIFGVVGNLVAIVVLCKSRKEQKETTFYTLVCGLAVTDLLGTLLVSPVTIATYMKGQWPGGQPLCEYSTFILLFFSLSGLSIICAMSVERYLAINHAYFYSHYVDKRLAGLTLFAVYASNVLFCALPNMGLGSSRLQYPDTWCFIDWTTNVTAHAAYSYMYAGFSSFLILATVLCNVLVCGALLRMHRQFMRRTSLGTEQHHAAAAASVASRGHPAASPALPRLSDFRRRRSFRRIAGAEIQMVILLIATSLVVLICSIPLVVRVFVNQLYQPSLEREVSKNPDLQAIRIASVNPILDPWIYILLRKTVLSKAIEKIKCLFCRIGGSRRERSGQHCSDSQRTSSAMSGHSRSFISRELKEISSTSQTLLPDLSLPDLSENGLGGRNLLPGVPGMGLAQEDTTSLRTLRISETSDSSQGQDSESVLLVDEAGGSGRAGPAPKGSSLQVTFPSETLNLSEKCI
Sequence of Dopamine D1 (P21728 whole entry): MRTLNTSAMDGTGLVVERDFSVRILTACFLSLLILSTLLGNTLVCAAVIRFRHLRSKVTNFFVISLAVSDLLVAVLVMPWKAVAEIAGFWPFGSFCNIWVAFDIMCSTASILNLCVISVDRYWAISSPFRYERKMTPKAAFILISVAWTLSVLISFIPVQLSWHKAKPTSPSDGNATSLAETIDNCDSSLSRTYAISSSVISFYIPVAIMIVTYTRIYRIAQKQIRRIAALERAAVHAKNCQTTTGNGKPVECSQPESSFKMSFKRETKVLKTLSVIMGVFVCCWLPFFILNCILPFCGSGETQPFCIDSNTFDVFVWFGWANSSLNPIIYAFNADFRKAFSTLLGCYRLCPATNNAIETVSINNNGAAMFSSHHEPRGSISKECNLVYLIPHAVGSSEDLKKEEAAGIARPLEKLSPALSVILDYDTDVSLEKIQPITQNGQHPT
Sequence of Seritonin (5-Hydroxytryptamine) 5-HT2B (P41595 whole entry): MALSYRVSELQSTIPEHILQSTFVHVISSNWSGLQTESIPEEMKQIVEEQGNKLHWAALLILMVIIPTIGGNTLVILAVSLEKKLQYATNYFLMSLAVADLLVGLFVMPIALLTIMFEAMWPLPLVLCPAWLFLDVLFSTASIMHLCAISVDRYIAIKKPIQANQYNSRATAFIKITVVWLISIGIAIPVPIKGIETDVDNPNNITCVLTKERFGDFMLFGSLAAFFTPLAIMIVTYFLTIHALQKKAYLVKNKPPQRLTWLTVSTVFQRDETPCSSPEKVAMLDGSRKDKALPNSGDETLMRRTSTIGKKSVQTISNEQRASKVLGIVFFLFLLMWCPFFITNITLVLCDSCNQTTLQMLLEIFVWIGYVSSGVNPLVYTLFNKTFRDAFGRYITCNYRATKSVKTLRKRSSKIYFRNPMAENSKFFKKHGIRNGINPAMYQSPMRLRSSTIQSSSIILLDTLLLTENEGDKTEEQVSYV
Sequence of Cannabinoid CB1 (P21554 whole entry): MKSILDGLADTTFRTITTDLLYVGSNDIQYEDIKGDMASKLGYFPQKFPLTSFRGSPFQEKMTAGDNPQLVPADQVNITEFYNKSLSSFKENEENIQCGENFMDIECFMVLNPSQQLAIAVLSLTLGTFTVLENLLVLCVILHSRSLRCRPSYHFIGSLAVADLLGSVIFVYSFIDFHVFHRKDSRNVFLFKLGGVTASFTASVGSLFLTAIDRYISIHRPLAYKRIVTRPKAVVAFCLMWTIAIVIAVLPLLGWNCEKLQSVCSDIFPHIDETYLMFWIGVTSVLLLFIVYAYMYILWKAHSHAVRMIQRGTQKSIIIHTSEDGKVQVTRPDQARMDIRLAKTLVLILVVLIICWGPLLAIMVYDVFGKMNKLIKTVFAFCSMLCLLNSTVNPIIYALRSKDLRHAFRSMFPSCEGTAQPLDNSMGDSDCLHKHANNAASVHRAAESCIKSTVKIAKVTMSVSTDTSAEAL
Sequence of Transporter, Norepinephrine (NET) (P23975 whole entry): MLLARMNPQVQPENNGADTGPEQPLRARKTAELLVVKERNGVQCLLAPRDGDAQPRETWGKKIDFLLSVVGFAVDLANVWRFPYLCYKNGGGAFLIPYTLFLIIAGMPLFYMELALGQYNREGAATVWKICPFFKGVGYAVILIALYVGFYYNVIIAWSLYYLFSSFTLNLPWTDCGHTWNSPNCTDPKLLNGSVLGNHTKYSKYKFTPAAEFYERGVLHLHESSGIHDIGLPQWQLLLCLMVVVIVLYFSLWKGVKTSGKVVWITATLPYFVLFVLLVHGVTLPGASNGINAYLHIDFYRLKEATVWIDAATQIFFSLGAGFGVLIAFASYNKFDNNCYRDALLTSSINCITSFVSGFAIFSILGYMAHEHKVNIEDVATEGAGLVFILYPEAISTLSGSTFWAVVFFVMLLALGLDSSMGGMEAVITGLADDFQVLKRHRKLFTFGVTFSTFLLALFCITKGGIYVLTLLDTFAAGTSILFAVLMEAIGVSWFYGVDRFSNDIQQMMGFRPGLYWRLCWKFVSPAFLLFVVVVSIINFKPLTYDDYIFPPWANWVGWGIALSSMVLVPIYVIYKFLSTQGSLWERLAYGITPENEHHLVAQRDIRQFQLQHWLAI
Sequence of Adrenergic β1 (P08588 whole entry): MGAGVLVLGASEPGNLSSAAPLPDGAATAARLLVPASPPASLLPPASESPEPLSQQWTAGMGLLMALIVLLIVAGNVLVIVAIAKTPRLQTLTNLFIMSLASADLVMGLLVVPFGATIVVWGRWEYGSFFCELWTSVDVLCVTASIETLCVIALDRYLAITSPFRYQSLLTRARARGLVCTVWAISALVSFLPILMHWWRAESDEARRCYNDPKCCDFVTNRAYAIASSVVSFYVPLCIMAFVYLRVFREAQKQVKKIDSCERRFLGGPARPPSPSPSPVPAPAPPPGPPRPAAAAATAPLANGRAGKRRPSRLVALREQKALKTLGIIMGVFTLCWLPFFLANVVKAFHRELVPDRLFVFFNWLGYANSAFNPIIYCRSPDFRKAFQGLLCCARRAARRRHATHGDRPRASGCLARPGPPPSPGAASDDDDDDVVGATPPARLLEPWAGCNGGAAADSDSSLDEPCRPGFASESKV

For the compound `O=C(Nc1nnc(-c2ccc(F)cc2)o1)N1CCc2ccccc2C1` [MBX-4132], the “% Inhibition, Adenosine A2A” value on Adenosine A2A is listed as 43%. In addition, the “% Inhibition, Transporter, Norepinephrine (NET)” value in test [1] was 50%. The “% Inhibition, Adrenergic β1” value on Adrenergic β1 is given as −10%. For the same compound, the “% Inhibition, Cannabinoid CB1” value on Cannabinoid CB1 was found to be 14%. Besides, the “% Inhibition, Adrenergic α2A” value on Adrenergic α2A came out at 54%. In addition, the “% Inhibition, Phorbol Ester” value in the test on Phorbol Ester is given as 4%. Also, the “% Inhibition, Potassium Channel (KATP)” value on Potassium Channel (KATP) turned out to be 10%. Further, the “% Inhibition, Nicotinic Acetylcholine” value in the test on Nicotinic Acetylcholine is listed as −8%. On Histamine, H1, the “% Inhibition, Histamine, H1” value stood at 17%. At Adenosine A1, the “% Inhibition, Adenosine A1” value stood at 48%. In test [2], the “% Inhibition, GABAA, Flunitrazepam, Central” value (“% Inhibition, GABAA” for short) came to 13%. For the same compound, the “% Inhibition, Seritonin (5-Hydroxytryptamine) 5-HT2B” value in [3] was 53%. For the same compound, the “% Inhibition, Muscarinic M2” value on Muscarinic M2 stood at 13%. Also, the “% Inhibition, Prostanoid EP4” value on Prostanoid EP4 turned out to be 18%. In addition, the “% Inhibition, Adrenergic α1A” value at Adrenergic α1A is recorded as 24%. Moreover, in [4], the “% Inhibition, Calcium Channel L-type, Dihydropyridine” value (“% Inhibition, Calcium Channel L-type” below) was 15%. The “% Inhibition, Dopamine D1” value at Dopamine D1 is given as −8%.

As a reminder, the inhibition is the relative decrease from the control value, in per cent. On to `O=C(Nc1nnc(-c2ccc(F)cc2)o1)N1CC=C(C(F)(F)F)CC1` [compound 4347], for which the inhibition at 10 µM against Adenosine A2A stood at 3%; in [1], 32%; at Adrenergic β1 it was 3%; against Cannabinoid CB1, 0%; on Adrenergic α2A, 9%; against Potassium Channel (KATP), 2%. Moreover, the inhibition at 10 µM against Histamine, H1 is 22%; at Adenosine A1, -4%; in test [3], -1%; on Muscarinic M2, 2%; against Prostanoid EP4, -4%; on Adrenergic α1A, -21%. At Dopamine D1, the inhibition at 10 µM was 5%. Moreover, in the test on Phorbol Ester, the “% Inhibition, Phorbol Ester” value was 7%. In the test with Nicotinic Acetylcholine, the “% Inhibition, Nicotinic Acetylcholine” value is −4%. Also, the “% Inhibition, GABAA” value in test [2] turned out to be 22%. The “% Inhibition, Calcium Channel L-type” value in test [4] is listed as 16%.

Take `O=C(Nc1nnc(-c2ccc(F)cc2)o1)c1ccc(OC2CCCCC2)cc1` [compound 4292]: the inhibition at 10 µM against Adenosine A2A is 11%; in [1] it was 77%; against Adrenergic β1 it was 3%; at Cannabinoid CB1 it was 11%; on Adrenergic α2A, 3%; on Potassium Channel (KATP), 8%. Besides, the inhibition at 10 µM was -8% against Histamine, H1; 8% against Adenosine A1; -7% in [3]; 0% at Muscarinic M2; 28% against Prostanoid EP4; 9% against Adrenergic α1A. The inhibition at 10 µM at Dopamine D1 was determined as 17%. Also, the “% Inhibition, Phorbol Ester” value in the test with Phorbol Ester was determined as 2%. Also, the “% Inhibition, Nicotinic Acetylcholine” value in the test on Nicotinic Acetylcholine came out at 1%. Also, the “% Inhibition, GABAA” value in test [2] was −1%. For the same compound, the “% Inhibition, Calcium Channel L-type” value in test [4] worked out at 23%.
